# Data: article PMC7804859, “A metabolically stable apelin-17 analog decreases AVP-induced antidiuresis and improves hyponatremia” (Nature Communications, 2021)
# Values joined by “and” are separate entries in the source; they are usually repeats but may differ in a detail not shown here. Equal entries are not always repeated.
# Legend:
# [1] = Brain apelin-immunoreactive levels in mice (RIA); type: in vivo, mouse
# Procedure: Then cells were treated with 10
# Results are expressed in femtomoles of cAMP produced
# 187 Apelin radioimmunoassay
# 189 until use for apelin RIA.
# The supernatants were collected and
# The samples were dried and dissolved in
# 201 centrifuged (17000 x g, 4°C, 20 min). The supernatant (4 ml) was collected, and mixed with
# The columns were then treated as described in
# Samples (0.1ml) w ere mixed with 125I-
# 212 used this radioligand instead of [Glp65, Nle75, Tyr77] [125I]-apelin13 since the substitution of
# 214 derivatives as described previously by 3,4.
# 216 incubated for 10 min at room temperature.
# This antiserum identified the apelin present in the
# Most of the apelin in human plasma was […]
# [2] = test system: phosphorylated AQP-2 in mpkCCD cells; assay: dDAVP-induced phosphorylation of AQP-2 in mpkCCD cells (immunofluorescence); type: cell-based, mouse; details: 10 µmol/l compound with 10 nmol/l dDAVP, 1 h
# Procedure: mpkCCD cells were seeded in 12 mm Transwell filters of 0.4 μm pore size at a density of 160,000 cells/cm^2 and were grown for 5 days. Twenty-four hours before the experiment, cells were starved with depletion media (1:1 (vol/vol) Ham’s F12:DMEM medium). […] The cell culture medium was removed and cells were fixed with 4% formaldehyde in 1× PBS for 10 min at 4 °C, and permeabilized with 0.5% PBS Triton X-100 for 5 min at 20 °C. Then, inserts were incubated in 5% PBS-BSA for 60 min at 20 °C to block non-specific protein binding. Inserts were subjected to immunostaining with a rabbit anti-AQP-2-pS269 antibody (dilution, 1/200, Phospho Solution, Cliniscience, France) and a mouse monoclonal anti-occludin antibody (dilution, 1/200, Santa Cruz, Cliniscience, France) for 16 h at 4 °C. Inserts were then incubated with goat anti-rabbit Alexa Fluor Plus 647 or goat anti-mouse Alexa Fluor plus 488 secondary antibodies (dilution, 1/500, Invitrogen) for 60 min at 20 °C. […] Slides were analyzed in the x–y and x–z axes under a ×63/1.4 Oil WD: 0.17 mm objective with a Zeiss Axioobserver Z1 inverted spinning-disk microscope equipped with a camera sCMOS Hamamatsu 2048 × 2048/pixel size: 6.45 × 6.45 µm^2 and the lasers (405 nm; 100 mW, 491 nm; 150 mW and 642 nm; 100 mW). […]
# [3] = Plasma protein binding (Rapid Equilibrium Dialysis); type: in vitro ADME; details: RED plate, 12 kDa cutoff, plasma vs phosphate buffer, 10 µmol/l, 4 hours, 37 °C, 600 rpm, UHPLC-MS/MS; value at equilibrium
# Procedure: 252 TechMedILL platfor m (Illkirch) reviewed and approved by the agriculture ministry regulating
# 256 Male Sprague-Dawley rats were killed by decapitation, and trunk blood was collected on ice
# 257 (into 50 µl of 0.3M EDTA (pH 7.4) per 1 ml of blood). Samples were centrifuged (2,600 x g,
# 258 4°C, 20 min), and the resulting plasma was split into 500 µl aliquots, to which we added 168
# 259 µl of 3N HCl before storage at -80°C. The AVP RIA was performed as previously described
# 260 5, using a specific AVP-[Arg8] antibody (final dilution, 1/4.5) and [125I]-(Tyr2Arg8)-AVP
# 261 (2200 Ci/mmol, Perkin-Elmer, Billerica, MA; 15000 dpm) as a tracer.
# 263 Plasma protein binding of LIT01-196 was determined using Thermo Scientific Single-Use
# 264 RED Plate (Rapid Equilibrium Dialysis) composed of dialysis inserts with a me mbrane cutoff
# 265 of 12 kDa. Compound (10 µmol/l) was spiked in plasma chamber (donor side); phosphate
# 266 buffer was placed in the receiving side. The plate was rotated at 37 °C on an orbital shaker at
# 267 600 rpm for 4 hours. Peptide concentration was determined for the plasma sample that
# 268 represents the bound fraction, the peptide concentration was deter mined for the buffer sample
# 269 that represents the free fraction. The samples were analyzed by UHPLC-MS/MS (LC-MS […]
# 274 proteins. Percentages of bound and free peptides were calculated as follows: % free peptide = […]
# [4] = test system: mpkCCD cells; assay: dDAVP-induced cAMP production in mpkCCD cells; type: cell-based, mouse; details: 10 µmol/l compound, 10 nmol/l dDAVP, 60 min 37 °C
# Procedure: 152 Supplementary Methods
# 154 We quantified cAMP production with the cAMP dynamic 2 assay kit (Cisbio Bioassays,
# 155 Codolet, France), which is based on homogeneous time-resolved fluorescence (HTRF)
# 156 technology, as previously described 1. For cells expressing the Apelin-R, 2000 CHO cells/well
# 157 stably expressing rat apelinR-EGFP (clone B70) were added to the 384-well plate and
# 158 stimulated with 5 µmol/l forskolin (FSK) and various concentrations (0.01 pmol/l to 100
# For cells expressing the V2-R, HEK-
# 160 293T cells were transiently transfected with the human V2-R (cDNA Resource Center), after
# 161 48h, 4000 cells/well were added to white 384-well optiplates and stimulated either with 5
# Cells were then lysed, and
# 165 cAMP levels were determined in accordance with the kit manufacturer’s instructions.
# 166 Stimulation was performed in stimulation buffer-IBMX (SBI) (Hank’s balanced salt solution
# 167 (HBSS-Life Technology), 5 mmol/l Hepes, 0.1% BSA stabilizer (Perkin Elmer), 1 mmol/l
# 168 isobutylmethylxanthine (IBMX, Sigma Aldrich, pH 7.4)). For cAMP assay with mpkCCD
# 169 cells, the cells were grown on 12 mm Transwell filters (0.4 μm pore size, Corning Costar,
# 170 Cambridge, MA) until they reach confluency (4-5 days). For forskolin experiments, culture
# 171 media was replaced with SBI in apical and basolateral compartments. After 30 min of […]
# [5] = test system: apelin-R and V2-R; assay: dDAVP-induced cAMP production in CHO cells stably expressing both the apelin-R and the V2-R; type: cell-based
# [6] = test system: normonatremic Sprague-Dawley rats; assay: Effects of s.c. administration on metabolic parameters in normonatremic rats; type: in vivo, rat
# [7] = test system: alert Sprague-Dawley rats; assay: Mean arterial blood pressure in alert rats; type: in vivo, rat; parameters: SBP_Baseline / SBP_3h / SBP_24h: unit not given here
# Procedure: 291 Blood pressure measurements
# 292 Rats were implanted with a right femoral artery catheter which was passed beneath the skin
# 293 under isoflurane anesthesia. Blood pressure (BP) was recorded in male alert Sprague Dawley
# 294 rats after a recovery period of at least 24 hours, with a PowerLab/Labchart system
# 295 (ADInstruments, Dunedin, New Zealand) connected to the arterial catheter via a pressure
# 296 transducer. Mean arterial BP (MABP) was calculated from the arterial pressure signal as
# 297 previously described 7. The compound was administered s.c. after baseline BP recording for at
# 298 least 30 minutes. BP was then measured at 3 and 24 hours after administration. At the end of
# 299 the experiment, animals were killed with a lethal dose of pentobarbital (Dolethal ®, 150
# [8] = in plasma; cited from earlier work
# [9] = 900 nmol/kg SC (tolvaptan 0.4.SC [sic]), normonatremic rats, single animals
smiles,measurement,setting,value
CSCC[C@H](NC(=O)[C@@H]1CCCN1C(=O)CNC(=O)[C@H](CCCCN)NC(=O)[C@H](Cc1c[nH]cn1)NC(=O)[C@H](CO)NC(=O)[C@H](CC(C)C)NC(=O)[C@H](CCCNC(=N)N)NC(=O)[C@@H]1CCCN1C(=O)[C@H](CCCNC(=N)N)NC(=O)[C@H](CCC(N)=O)NC(=O)[C@H](CCCNC(=N)N)NC(=O)[C@H](CCCNC(=N)N)NC(=O)[C@H](Cc1ccccc1)NC(=O)[C@H](CCCCN)NC(=O)CCC(F)(F)C(F)(F)C(F)(F)C(F)(F)C(F)(F)C(F)(F)C(F)(F)C(F)(F)F)C(=O)N1CCC[C@H]1C(=O)N[C@@H](Cc1ccccc1)C(=O)O [LIT01-196],apelin.brain,"[1]; LIT01-196 900 nmol/kg, individual animals (Fig. S2C source data)",0.257 and 0.271 and 0.513 and 0.58
same,apelin-IR levels in the brain,"[1]; mice, 30 min after s.c. 900 nmol/kg, saline 0.391 ± 0.045, n = 5",0.440 ± 0.073 pmol/brain
same,phosphorylation of AQP-2 (phospho-AQP-2 immunolabelling),[2],decrease in the phosphorylation of AQP-2
same,bound fraction to plasma proteins,[3],69 ± 7%
same,inhibition of dDAVP-induced cAMP production,[4],79%
same,dDAVP-induced cAMP production,[5],dose-dependently inhibits
same,Urine osmolality (3 hours),[6]; [9],1384 and 748 and 940 and 740 and 756 and 732
same,Urine osmolality (6 hours),[6]; [9],356 and 1028 and 440 and 1112 and 752 and 680
same,Urine osmolality (24 hours),[6]; [9],1095 and 2308 and 2437 and 1605 and 969 and 1304 and 1184 and 540 and 808 and 632 and 904 and 972 and 1020 and 1112 and 960 and 572 and 760 and 772 and 928 and 708 and 1220 and 1508
same,body weight change (weight loss),"[6]; 900 nmol/kg s.c., 24 h",−1.8%
same,increase in water intake,"[6]; 900 nmol/kg s.c., 24 h",11%
same,increase in water intake to food intake ratio,"[6]; 900 nmol/kg s.c., 24 h",50%
same,increase in free water excretion fraction,"[6]; 900 nmol/kg s.c., 24 h, n = 6",86%
same,decrease in food (normal chow) intake,"[6]; 900 nmol/kg s.c., 24 h, non-significant",20%
same,increase in 24-h urine output relative to saline,"[6]; 900 nmol/kg s.c., normonatremic rats",79%
same,decrease in urine osmolality,"[6]; 900 nmol/kg s.c., normonatremic rats, 24 h",52%
same,Water excretion fraction,"[6]; LIT01-196 900 nmol/kg SC, individual animals (Fig. S4C source data)",0.8192 and 1.335 and 0.9524 and 0.95 and 0.8692 and 1.016
same,Sodium excretion fraction,"[6]; LIT01-196 900 nmol/kg SC, individual animals (Fig. S4D source data)",0.6321 and 0.5196 and 0.512 and 0.526 and 0.4023 and 0.292
same,Sodium excretion fraction,"[6]; LIT01-196 900 nmol/kg, tolvaptan 6700 nmol/kg s.c., 24 h",not changed
same,Water to food ratio,"[6]; normonatremic rats, 900 nmol/kg SC, individual animal values (source data Fig. 4L)",1.9011 and 2.746 and 2.674 and 1.755 and 1.9235 and 1.556 and 1.545
same,SBP_3h,"[7]; 900 nmol/kg SC, 3h, individual animals (Fig. S5A source data)",100.529 and 94.7199 and 92.7855 and 89.7756 and 91.9306
same,SBP_24h,"[7]; 900 nmol/kg SC, 24h, individual animals (Fig. S5A source data)",122.566 and 101.322 and 101.468 and 97.9055
same,SBP_Baseline,"[7]; 900 nmol/kg SC, baseline, individual animals (Fig. S5A source data)",113.98 and 106.154 and 101.631 and 106.857 and 101.074
same,MABP 24 h after administration,"[7]; 900 nmol/kg s.c., alert rats",did not significantly differ from baseline
same,mean arterial blood pressure (MABP) 3 h after administration,"[7]; 900 nmol/kg s.c., alert rats, n = 5, baseline 106 ± 2, p = 0.063",94 ± 2 mmHg
same,plasma half-life,[8],> 24 h
